From publication PMC13343842, “The accessory protein CvnF8 modulates histidine kinase activity in an actinobacterial G protein system in Streptomyces coelicolor” (mBio, 2026)

Biological target: T1, CvnA8 (Streptomyces coelicolor, UniProt Q9KYJ8, H183A)
T1 construct: truncated, two N-terminal transmembrane helices removed; printed as 'nucleotides 55–518' (probably residues 55-518); N-terminal 3x Strep tag kept; E. coli BL21(DE3); Strep-Tactin XT and SEC
Assay: Kinase-Glo Plus luminescence ATP consumption, Michaelis-Menten fit
Format: biochemical
Conditions: 1.5 µM CvnA8 H183A, 25 mM Tris pH 8.0, 150 mM NaCl, 100 mM MgCl2, 37 °C; 0-300 µM ATP

T1 sequence (Q9KYJ8 entry or part of it H183A): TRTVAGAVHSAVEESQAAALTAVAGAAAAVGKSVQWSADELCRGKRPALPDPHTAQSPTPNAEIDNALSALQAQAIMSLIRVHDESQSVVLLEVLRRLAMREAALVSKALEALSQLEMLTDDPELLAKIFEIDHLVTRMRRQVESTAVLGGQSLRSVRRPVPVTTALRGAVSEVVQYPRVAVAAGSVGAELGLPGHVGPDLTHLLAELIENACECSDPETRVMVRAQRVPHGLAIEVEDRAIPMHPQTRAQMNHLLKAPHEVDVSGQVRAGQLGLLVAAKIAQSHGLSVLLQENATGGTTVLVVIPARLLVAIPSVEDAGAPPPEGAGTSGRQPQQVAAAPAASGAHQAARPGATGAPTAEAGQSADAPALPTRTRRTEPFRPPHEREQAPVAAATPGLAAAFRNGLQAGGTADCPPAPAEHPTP

For `Nc1ncnc2c1ncn2[C@@H]1O[C@H](COP(=O)(O)OP(=O)(O)OP(=O)(O)O)[C@@H](O)[C@H]1O` [ATP], which “Kinase-Glo Plus luminescence ATP consumption, Michaelis-Menten fit” value is on record?
The value was “drastically reduced in the H183A mutant, which prohibited the calculation of a nominal kcat”.
